Test results taken from publication PMC11514837 (Toxicological Sciences, 2024).
Where two headings read alike, the source gives them in different places.

Tests used:
zebrafish Ahr2 = target: T1, zebrafish Ahr2 (Danio rerio, UniProt Q9YGV3); assay type: cell-based; settings: exposures up to 30 μM
T1 sequence (Q9YGV3 1-1027): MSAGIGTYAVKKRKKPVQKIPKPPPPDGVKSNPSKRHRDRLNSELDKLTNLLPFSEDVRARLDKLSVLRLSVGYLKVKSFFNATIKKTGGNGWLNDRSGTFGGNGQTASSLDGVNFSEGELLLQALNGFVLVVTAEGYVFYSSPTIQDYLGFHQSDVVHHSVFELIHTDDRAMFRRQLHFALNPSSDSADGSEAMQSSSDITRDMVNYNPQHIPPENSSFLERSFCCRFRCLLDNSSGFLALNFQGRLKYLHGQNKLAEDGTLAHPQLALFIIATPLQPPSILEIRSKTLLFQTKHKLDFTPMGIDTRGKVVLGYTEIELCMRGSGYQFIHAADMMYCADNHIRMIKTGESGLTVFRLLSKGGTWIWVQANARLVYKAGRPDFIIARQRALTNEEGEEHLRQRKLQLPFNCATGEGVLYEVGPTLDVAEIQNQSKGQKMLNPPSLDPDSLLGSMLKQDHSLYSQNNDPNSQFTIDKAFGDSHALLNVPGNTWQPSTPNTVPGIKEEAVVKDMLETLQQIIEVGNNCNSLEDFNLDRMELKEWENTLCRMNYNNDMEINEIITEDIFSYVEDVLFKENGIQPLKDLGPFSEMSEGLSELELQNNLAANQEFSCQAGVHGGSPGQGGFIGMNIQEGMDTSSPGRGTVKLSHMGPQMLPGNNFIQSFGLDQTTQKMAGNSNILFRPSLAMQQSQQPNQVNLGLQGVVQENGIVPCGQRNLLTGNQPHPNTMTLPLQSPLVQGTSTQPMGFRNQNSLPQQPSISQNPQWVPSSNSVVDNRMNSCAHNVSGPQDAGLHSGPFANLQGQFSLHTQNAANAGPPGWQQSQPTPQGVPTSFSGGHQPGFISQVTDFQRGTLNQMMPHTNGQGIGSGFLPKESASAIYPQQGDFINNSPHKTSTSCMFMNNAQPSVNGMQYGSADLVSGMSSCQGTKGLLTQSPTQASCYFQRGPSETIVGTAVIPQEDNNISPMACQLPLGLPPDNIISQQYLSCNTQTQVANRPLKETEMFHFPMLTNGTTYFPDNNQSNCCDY

human AHR [1] = target: T2, human AHR (Homo sapiens, UniProt P35869); settings: exposures up to 30 μM
T2 sequence (P35869 11-848): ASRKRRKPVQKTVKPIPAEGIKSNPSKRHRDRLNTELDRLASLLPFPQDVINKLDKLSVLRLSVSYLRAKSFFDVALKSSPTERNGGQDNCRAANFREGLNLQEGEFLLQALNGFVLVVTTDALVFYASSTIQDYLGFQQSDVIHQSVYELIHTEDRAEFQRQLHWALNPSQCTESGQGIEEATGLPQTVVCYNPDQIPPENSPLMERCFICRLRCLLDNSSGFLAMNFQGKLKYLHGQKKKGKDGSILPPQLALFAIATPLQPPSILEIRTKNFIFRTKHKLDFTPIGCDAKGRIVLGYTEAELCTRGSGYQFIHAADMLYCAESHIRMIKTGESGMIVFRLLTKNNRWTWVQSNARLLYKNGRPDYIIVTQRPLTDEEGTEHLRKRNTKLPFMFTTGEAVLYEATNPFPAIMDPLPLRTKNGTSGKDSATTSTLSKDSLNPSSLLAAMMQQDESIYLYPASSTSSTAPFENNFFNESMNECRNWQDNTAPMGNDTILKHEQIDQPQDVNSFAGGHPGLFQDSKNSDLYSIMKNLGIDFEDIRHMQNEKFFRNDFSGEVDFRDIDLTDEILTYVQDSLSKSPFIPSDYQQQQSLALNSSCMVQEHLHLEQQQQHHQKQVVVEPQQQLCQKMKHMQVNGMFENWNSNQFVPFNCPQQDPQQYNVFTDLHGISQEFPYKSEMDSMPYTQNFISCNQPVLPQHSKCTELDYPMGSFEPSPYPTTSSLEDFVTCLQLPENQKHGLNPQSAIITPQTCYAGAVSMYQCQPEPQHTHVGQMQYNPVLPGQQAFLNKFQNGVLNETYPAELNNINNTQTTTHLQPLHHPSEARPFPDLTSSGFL

[2] = test system: cyp1a^cms-gfp zebrafish (EGFP under cyp1a promotor)
zebrafish embryos [3] = experiment: Zebrafish developmental toxicity screening, wild-type fish; assay type: in vivo, zebrafish (Danio rerio); settings: for concentration up to which not toxic in zebrafish: data not shown; for EC80: nominal concentration causing morphologic malformations in 80% of WT zebrafish
cyp1a^osu4 zebrafish = assay type: in vivo; settings: TCDD, cyp1a^osu4 fish, 1 h exposure at 6 to 8 hpf
cyp1a^osu5 zebrafish = assay type: in vivo; settings: TCDD, cyp1a^osu5 fish; unit not given
Cyp1b1^wh4 zebrafish = assay type: in vivo; settings: TCDD
[4] = Retene body burden in zebrafish tissue; assay type: in vivo
zebrafish embryos [5] = experiment: Window of susceptibility developmental toxicity exposures; assay type: in vivo
human AHR [6] = target: T2, human AHR
Ahr2 = settings: ref Billiard et al. 2002; cited from earlier work
[7] = test system: Ahr2 knockout (ahr2^hu3335) fish; settings: ref Scott et al. 2011; Wilson et al. 2022; cited from earlier work
[8] = Larval metabolite analysis by LC-IM-MS; settings: zebrafish exposed to 26 µM retene

For `c1ccc2cc3c(cc2c1)-c1cccc2cccc-3c12` [Benzo[k]fluoranthene, Benzo(k)fluoranthene], which “Ahr2 activation in zebrafish ZF-4 luciferase reporter cells” value (from here on “Ahr2 activation”) (zebrafish Ahr2) is on record?
Its value is “direct AHR activators”.

And the “AHR activation in human HuH-7 luciferase reporter cells” value (from here on “AHR activation”) (human AHR [1])?
The value was “direct AHR activators”.

What about the “EGFP expression at 23 hpf / early hours” value ([2]; cyp1a^cms-gfp fish, retene 26 μM, benzo[k]fluoranthene 8.9 μM) of the same compound?
Its value is “strong widespread EGFP expression”.

Which “Ahr2 activation” value (zebrafish Ahr2) does the source give for `O=C1c2ccccc2C(=O)c2c1ccc1ccccc21` [Benzanthraquinone] here?
Its value is “direct AHR activators”.

What about the “AHR activation” value (human AHR [1]) of the same compound?
Its value is “direct AHR activators”.

Which “concentration up to which not toxic in zebrafish” value (zebrafish embryos [3]) does the source give for `Cc1cccc2c1ccc1ccccc12` [1-methylphenathrene, 1-methylphenanthrene] here?
Its value is greater than 100 µM.

What does the source list for `Clc1cc2c(cc1Cl)Oc1cc(Cl)c(Cl)cc1O2` [TCDD, 2,3,7,8-Tetrachlorodibenzo-p-dioxin]?
BMC50 (cyp1a^osu4 zebrafish): 0.41 ± 0.07 nM; BMC (cyp1a^osu5 zebrafish): 0.56 ± 0.13; change in toxicity versus 5D fish (Cyp1b1^wh4 zebrafish): no change in toxicity

Which EC80 (zebrafish embryos [3]) does the source give for `O=c1c2ccccc2oc2ccccc12` [Xanthone] here?
The EC80 was 52 µM.

For `c1ccc2c(c1)-c1cccc3c1c-2cc1ccccc13` [Benzo[b]fluoranthene], which “Ahr2 activation” value (zebrafish Ahr2) is on record?
The value was “direct AHR activators”.

And the “concentration up to which not toxic in zebrafish” value (zebrafish embryos [3])?
Its value is greater than 100 µM.

What about the “AHR activation” value (human AHR [1]) of the same compound?
Its value is “direct AHR activators”.

Which results are given for `Cc1cccc2c1ccc1cc(C(C)C)ccc12` [Retene, 1-methyl-7-isopropylphenanthrene]?
Ahr2 activation in zebrafish ZF-4 luciferase reporter cells (zebrafish Ahr2): no significant activation; Ahr2 activation in zebrafish ZF-4 luciferase reporter cells (zebrafish Ahr2; listed as retene): do not respond; increase in body burden from 12 to 24 hpf ([4]; 30 μM retene from 6 hpf): greater than 3 fold; tissue burden at 48 hpf ([4]; 30 μM retene from 6 hpf): decreased to near-baseline; 24 hpf body burden ([4]; static exposure to 30 μM retene from 6 hpf): 31 ng/fish; BMC50 (zebrafish embryos [5]; exposure window 6 to 48 hpf, screened at 120 hpf): 52 ± 4 µM; developmental toxicity response (zebrafish embryos [5]; exposure window 48 to 120 hpf): little response; AHR activation in human HuH-7 luciferase reporter cells (human AHR [1]): minimal reporter activity; effect of supplementation with human liver s9 on reporter activity (human AHR [6]): did not lead to an increase in reporter activity; EGFP expression at 23 hpf / early hours ([2]; zebrafish, in vivo): control-like EGFP expression; times less strong at binding Ahr2 than 1-methylphenanthrene (Ahr2): 3 ×; times less strong at binding Ahr2 than benzo[b]fluoranthene (Ahr2): 73 ×; Ahr2 dependence of toxicity in developing zebrafish [7]: Ahr2 dependent toxicity; retene metabolites in tissue extracts at 12 and 24 hpf [8]: No retene metabolites were detected

With `c1ccc2c3c(ccc2c1)-c1cccc2cccc-3c12` [Benzo[j]fluoranthene] as the compound, how does the “Ahr2 activation” value (zebrafish Ahr2) read?
The value was “direct AHR activators”.

What about the EC80 (zebrafish embryos [3]) of the same compound?
Its EC80 is “could not be determined”.

What about the “AHR activation” value (human AHR [1]) of the same compound?
Its value is “direct AHR activators”.

With `c1ccc2c(c1)cc1ccc3cccc4ccc2c1c34` [Benzo[a]pyrene] as the compound, how does the “Ahr2 activation” value (zebrafish Ahr2) read?
Its value is “activator”.

What about the “AHR activation” value (human AHR [1]) of the same compound?
Its value is “activator”.
